Test results published in ChEMBL document CHEMBL1201862, “PubChem BioAssay data set” (2004).
Where “and” joins values, the source holds several entries; their conditions need not be identical. Equal entries are not always repeated. Each block holds one molecule with its values, some of them ahead of it. Calls of active or inactive are those of the source.

Legend:
[1] = target: T1, Sentrin-specific protease 6 (Homo sapiens, UniProt Q9GZR1); test: SAR Analysis of small molecule inhibitors of Sentrin-specific protease 6 (SENP6) using a Luminescent assay. [Related pubchem assays (depositor defined):AID2582, AID2599]; type: functional
T1 sequence (Q9GZR1 whole entry): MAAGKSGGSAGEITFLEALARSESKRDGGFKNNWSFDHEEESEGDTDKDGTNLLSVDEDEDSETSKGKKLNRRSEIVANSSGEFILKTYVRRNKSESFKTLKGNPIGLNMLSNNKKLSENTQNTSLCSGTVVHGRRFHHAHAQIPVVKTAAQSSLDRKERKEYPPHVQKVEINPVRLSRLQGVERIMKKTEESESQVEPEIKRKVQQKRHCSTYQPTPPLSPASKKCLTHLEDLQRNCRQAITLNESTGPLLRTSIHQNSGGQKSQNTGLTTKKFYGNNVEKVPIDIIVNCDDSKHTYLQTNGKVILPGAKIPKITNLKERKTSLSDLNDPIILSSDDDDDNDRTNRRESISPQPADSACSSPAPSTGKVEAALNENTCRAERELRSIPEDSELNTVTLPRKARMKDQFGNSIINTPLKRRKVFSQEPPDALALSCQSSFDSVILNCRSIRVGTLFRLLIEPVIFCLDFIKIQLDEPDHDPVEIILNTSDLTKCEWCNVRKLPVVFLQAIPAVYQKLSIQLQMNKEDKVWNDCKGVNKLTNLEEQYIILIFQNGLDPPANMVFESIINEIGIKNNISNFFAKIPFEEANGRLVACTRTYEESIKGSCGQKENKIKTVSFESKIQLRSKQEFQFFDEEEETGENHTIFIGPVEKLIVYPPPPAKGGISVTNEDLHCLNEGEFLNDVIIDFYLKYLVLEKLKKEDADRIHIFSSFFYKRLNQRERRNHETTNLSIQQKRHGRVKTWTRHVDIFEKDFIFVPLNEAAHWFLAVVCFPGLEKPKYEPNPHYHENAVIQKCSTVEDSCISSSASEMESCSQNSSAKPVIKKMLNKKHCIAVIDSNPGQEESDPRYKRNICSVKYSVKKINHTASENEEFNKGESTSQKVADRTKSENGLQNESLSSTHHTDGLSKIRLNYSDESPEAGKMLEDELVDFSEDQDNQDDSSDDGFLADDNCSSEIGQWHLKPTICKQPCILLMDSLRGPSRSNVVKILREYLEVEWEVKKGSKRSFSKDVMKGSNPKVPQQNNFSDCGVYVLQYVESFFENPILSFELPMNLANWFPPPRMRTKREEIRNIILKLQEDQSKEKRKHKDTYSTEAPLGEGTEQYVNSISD

[2] = target: T2, Sentrin-specific protease 7 (Homo sapiens, UniProt Q9BQF6); test: inhibition of human SENP7 cleavage activity – biochemical, luminescence, SAR follow-up (AID 504497); type: functional
T2 sequence (Q9BQF6 whole entry): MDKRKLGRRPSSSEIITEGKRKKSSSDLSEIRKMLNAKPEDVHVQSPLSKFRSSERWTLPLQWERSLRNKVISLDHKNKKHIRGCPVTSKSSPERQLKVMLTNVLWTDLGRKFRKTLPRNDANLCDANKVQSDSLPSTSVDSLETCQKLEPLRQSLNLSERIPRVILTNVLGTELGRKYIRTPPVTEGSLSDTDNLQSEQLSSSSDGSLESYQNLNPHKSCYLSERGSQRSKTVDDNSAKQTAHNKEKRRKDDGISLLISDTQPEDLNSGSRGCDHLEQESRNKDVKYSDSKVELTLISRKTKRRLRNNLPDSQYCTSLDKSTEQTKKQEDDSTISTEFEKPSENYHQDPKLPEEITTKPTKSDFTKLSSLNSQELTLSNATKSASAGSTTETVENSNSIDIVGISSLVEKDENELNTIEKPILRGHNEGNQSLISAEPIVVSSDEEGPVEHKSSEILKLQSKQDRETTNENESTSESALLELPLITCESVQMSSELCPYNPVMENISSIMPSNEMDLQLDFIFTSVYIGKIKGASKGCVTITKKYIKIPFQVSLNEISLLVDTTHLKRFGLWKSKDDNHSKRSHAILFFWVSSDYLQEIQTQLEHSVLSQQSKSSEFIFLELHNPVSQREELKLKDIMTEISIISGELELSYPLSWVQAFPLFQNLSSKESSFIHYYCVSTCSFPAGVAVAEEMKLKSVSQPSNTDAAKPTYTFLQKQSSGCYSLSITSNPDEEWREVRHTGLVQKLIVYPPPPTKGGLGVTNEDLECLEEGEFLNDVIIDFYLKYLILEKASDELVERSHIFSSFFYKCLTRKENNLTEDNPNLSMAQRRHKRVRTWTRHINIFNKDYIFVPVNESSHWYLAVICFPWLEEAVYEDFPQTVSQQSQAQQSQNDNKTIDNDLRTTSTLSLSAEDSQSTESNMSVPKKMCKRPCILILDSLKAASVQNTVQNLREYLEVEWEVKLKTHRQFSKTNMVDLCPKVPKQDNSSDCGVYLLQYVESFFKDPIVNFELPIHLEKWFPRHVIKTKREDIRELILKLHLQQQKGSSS

Caspase-3 [3] = target: T3, Caspase-3 (Homo sapiens, UniProt P42574); test: inhibition of recombinant caspase-3 activity – biochemical, luminescence, set 2, selectivity assay for SENP protease inhibitor project, SAR follow-up (AID 588599); type: functional
T3 sequence (P42574 whole entry): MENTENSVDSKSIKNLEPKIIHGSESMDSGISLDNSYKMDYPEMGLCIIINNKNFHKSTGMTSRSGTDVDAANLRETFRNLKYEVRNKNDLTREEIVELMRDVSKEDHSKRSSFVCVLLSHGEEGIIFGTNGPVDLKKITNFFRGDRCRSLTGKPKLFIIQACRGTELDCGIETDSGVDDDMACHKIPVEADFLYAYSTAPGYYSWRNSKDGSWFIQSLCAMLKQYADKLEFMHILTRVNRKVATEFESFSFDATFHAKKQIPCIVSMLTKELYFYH

[4] = target: T1, Sentrin-specific protease 6; test: inhibition of human SENP6 catalytic domain – biochemical, luminescence, set 2, SAR follow-up (AID 588598); type: functional
[5] = target: T2, Sentrin-specific protease 7; test: inhibition of human SENP7 cleavage activity – biochemical, luminescence, set 2, SAR follow-up (AID 588600); type: functional
[6] = target: T4, Sentrin-specific protease 8 (Homo sapiens, UniProt Q96LD8); test: inhibition of sentrin protease 8 – biochemical, luminescence, set 2, SAR follow-up (AID 588601); type: functional
T4 sequence (Q96LD8 whole entry): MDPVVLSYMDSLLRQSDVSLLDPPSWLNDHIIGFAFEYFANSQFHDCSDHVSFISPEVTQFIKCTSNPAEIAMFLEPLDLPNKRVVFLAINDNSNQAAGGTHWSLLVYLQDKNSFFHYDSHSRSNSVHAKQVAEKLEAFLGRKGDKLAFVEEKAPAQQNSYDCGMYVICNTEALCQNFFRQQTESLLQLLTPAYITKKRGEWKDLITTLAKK

[7] = target: T4, Sentrin-specific protease 8; test: inhibition of human SENP8 cleavage activity – biochemical, luminescence, SAR follow-up (AID 504501); type: functional
Caspase-3 [8] = target: T3, Caspase-3; test: SAR Analysis of small molecule inhibitors of Sentrin-specific proteases (SENPs) using a Caspase-3 Selectivity assay. [Related pubchem assays (depositor defined):AID2540, AID2599, AID434973, AID489001]; type: functional
[9] = target: Protein disulfide-isomerase (Homo sapiens, UniProt P07237); test: inhibition of PDI-driven insulin aggregation – biochemical, turbidity, absorbance, cherry-picked samples, dose response (AID 602350); type: functional
Sequence of Protein disulfide-isomerase (P07237 whole entry): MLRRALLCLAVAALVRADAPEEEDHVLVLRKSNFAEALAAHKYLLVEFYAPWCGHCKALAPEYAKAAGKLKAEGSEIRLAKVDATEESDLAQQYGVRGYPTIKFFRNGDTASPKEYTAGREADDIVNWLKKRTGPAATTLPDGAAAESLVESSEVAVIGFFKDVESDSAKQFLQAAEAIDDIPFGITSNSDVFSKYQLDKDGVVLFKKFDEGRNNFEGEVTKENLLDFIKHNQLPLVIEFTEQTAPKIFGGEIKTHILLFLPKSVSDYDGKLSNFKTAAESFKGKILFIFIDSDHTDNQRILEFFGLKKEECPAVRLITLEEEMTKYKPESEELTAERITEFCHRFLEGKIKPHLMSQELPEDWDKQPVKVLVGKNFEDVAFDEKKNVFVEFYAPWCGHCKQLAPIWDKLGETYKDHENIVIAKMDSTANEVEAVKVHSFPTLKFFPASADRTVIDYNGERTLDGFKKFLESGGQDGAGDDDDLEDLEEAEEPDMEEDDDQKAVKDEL

[10] = target: Mitochondrial peptide methionine sulfoxide reductase (Bos taurus, UniProt P54149); type: functional;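 note: absorbance read-out, biochemical high-throughput dose-response screen for MsrA inhibitors, confirmatory; recombinant bovine MsrA coupled to E. coli TrxB with NADPH and selenocystamine; potency is for inhibitors of MsrA activity on DMSO substrate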
Sequence of Mitochondrial peptide methionine sulfoxide reductase (P54149 whole entry): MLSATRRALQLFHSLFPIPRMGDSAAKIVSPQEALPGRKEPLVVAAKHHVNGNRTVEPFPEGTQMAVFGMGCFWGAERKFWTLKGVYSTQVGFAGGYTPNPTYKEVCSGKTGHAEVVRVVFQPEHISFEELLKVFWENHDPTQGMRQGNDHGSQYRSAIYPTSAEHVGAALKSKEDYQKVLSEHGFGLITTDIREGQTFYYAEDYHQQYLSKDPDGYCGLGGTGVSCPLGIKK

[11] = target: Benomyl/methotrexate resistance protein (Candida albicans, UniProt P28873); test: Candida albicans Mdr1 pump inhibition curves – singleplex, Cherry Pick1 hits, dose response (AID 588608); type: functional
Sequence of Benomyl/methotrexate resistance protein (P28873 whole entry): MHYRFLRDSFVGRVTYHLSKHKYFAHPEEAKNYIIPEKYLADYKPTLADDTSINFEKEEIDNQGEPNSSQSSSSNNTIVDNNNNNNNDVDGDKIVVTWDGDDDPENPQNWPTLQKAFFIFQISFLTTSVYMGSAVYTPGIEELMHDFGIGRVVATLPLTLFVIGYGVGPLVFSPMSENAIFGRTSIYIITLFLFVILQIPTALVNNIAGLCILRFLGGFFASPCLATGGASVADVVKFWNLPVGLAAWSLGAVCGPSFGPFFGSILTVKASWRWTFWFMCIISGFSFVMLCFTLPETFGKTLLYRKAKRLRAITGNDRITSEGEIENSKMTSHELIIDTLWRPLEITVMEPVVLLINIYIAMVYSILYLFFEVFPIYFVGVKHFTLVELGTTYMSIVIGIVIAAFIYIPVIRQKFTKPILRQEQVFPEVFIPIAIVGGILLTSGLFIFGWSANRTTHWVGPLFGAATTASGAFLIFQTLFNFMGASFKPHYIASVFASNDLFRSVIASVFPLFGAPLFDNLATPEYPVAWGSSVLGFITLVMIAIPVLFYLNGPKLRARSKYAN

[12] = target: 5-hydroxytryptamine receptor 2A (Mus musculus, UniProt P35363); type: functional, cell-based;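 note: CHO-K1 cells with tagged receptor and beta-arrestin; agonist potency measured as compound-induced activation of the receptor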
Sequence of 5-hydroxytryptamine receptor 2A (P35363 whole entry): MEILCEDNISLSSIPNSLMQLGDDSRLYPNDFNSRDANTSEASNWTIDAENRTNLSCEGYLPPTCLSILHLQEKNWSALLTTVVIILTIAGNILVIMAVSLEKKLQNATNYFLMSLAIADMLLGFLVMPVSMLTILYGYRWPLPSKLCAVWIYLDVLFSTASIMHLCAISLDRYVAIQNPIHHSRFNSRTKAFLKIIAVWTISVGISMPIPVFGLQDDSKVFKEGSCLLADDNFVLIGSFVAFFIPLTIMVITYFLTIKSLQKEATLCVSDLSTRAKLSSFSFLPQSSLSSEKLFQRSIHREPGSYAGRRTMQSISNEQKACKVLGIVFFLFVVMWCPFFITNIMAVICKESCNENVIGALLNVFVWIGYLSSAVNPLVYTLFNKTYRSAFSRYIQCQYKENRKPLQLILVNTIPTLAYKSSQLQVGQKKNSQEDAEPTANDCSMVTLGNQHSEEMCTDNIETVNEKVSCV

Fatty acid synthase [13] = target: T5, Fatty acid synthase (Homo sapiens, UniProt P49327); test: inhibition of human FAS-TE enzyme activity – biochemical, kinetic fluorescence intensity, dose response (AID 624326); type: functional;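 note: rate of fluorescence rise from hydrolysis of a fluorogenic O-methyl fluorescein ester substrate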
T5 sequence (P49327 whole entry): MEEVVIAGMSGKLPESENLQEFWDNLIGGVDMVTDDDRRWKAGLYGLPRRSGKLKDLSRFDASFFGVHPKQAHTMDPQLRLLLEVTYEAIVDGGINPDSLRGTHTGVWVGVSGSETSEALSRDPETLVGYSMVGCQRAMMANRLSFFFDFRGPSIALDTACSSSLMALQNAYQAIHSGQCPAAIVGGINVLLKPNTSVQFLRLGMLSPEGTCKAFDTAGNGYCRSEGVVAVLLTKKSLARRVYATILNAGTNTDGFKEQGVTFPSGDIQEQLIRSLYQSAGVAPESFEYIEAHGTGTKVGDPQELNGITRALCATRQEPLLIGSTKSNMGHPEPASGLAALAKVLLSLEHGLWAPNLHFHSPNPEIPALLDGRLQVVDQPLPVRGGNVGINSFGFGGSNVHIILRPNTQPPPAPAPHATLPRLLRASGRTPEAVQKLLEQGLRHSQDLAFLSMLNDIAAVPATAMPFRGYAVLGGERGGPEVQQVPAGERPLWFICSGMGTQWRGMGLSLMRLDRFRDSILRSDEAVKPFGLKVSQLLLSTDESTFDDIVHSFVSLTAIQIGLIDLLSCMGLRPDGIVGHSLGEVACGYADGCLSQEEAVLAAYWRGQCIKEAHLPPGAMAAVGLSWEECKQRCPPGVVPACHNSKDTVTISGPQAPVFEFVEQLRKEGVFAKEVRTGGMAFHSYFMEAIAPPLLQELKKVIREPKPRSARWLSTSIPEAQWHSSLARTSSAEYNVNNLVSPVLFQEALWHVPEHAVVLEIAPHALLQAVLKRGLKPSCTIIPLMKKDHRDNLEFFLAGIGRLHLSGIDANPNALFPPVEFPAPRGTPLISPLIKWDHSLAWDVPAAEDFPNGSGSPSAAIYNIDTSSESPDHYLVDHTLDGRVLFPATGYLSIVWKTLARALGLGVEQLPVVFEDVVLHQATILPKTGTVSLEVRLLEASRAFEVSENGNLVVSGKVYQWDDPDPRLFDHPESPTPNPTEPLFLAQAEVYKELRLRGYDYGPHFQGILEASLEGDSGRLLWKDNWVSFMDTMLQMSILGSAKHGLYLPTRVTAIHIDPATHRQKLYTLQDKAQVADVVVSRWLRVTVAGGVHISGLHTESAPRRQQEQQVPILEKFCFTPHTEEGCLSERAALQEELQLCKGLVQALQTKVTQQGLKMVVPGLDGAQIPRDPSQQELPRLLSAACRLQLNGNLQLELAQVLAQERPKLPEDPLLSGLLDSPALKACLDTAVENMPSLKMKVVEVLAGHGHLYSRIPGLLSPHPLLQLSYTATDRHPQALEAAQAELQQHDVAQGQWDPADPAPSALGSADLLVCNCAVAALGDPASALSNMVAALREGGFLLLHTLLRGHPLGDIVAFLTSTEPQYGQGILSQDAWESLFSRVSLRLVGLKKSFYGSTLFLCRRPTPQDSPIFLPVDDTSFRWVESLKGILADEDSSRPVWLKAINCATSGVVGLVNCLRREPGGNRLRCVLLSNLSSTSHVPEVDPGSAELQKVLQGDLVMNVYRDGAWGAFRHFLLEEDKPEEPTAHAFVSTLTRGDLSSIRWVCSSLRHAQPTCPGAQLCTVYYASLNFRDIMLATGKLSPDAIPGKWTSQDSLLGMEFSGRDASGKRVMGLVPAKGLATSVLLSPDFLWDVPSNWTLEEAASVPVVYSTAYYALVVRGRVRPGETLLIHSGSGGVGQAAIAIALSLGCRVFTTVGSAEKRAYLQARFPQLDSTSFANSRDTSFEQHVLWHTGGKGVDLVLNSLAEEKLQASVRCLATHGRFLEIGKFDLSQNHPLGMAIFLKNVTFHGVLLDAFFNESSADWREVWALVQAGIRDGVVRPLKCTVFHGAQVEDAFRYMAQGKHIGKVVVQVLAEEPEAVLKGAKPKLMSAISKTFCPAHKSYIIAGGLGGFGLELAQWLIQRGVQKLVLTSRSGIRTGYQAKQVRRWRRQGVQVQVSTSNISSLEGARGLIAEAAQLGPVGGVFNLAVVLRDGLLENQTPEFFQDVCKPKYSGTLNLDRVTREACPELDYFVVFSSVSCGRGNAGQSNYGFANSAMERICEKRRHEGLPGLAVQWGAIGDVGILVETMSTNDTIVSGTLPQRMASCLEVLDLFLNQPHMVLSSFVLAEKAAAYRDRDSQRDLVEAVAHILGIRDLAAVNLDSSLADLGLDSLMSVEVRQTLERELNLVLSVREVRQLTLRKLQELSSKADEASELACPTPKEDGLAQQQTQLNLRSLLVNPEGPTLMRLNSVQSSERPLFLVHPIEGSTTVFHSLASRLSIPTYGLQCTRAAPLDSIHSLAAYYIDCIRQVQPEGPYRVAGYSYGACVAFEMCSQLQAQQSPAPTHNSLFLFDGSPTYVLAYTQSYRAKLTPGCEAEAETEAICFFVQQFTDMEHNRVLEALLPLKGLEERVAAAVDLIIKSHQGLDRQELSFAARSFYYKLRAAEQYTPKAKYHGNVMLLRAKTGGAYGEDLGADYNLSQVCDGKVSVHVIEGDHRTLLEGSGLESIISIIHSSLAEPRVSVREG

[14] = non-specific 3'UTR reporter inhibition in Clone20-Shn3RL – cell-based, Renilla luciferase, cherry-picked, counter-screen for Shn3 inhibitor project, dose response (AID 624133); type: functional
Mu-type opioid receptor = Mu-type opioid receptor (Homo sapiens, UniProt P35372); type: functional, cell-based;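 note: U2OS cells with beta-arrestin recruitment to OPRM1 by beta-gal complementation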
Sequence of Mu-type opioid receptor (P35372 whole entry): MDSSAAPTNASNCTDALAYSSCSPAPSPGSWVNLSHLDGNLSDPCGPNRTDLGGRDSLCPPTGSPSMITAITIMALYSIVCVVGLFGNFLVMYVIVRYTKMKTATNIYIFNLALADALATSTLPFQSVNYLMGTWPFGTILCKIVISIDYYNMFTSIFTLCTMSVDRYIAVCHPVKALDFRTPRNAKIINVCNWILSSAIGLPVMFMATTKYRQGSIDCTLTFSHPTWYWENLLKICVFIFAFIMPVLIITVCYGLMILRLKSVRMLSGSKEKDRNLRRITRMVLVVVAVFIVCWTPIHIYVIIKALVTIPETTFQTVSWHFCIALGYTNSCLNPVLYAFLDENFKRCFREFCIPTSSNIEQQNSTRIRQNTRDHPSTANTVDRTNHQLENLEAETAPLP

HEK293 = test: EBV LMP1 TES2 canonical NF-kB signalling blockers – cell-based, HEK293, luciferase, cherry-pick, dose response (AID 588343); type: functional; settings: Homo sapiens
Fatty acid synthase [15] = target: T5, Fatty acid synthase; test: inhibition of human FAS-TE enzyme activity – biochemical, endpoint fluorescence intensity, uHTS hits, dose response (AID 624327); type: functional;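 note: fluorescence from hydrolysis of an O-methyl fluorescein acyl ester substrate by the enzyme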
[16] = reduction of Shn3 3'UTR-driven luciferase in osteoblasts – cell-based, Clone20 osteoblasts, firefly luciferase, cherry-picked, dose response (AID 624132); type: functional;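 note: firefly luciferase luminescence from reporter carrying the Shn3 3'UTR in osteoblasts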
Interleukin-8 [17] = target: T6, Interleukin-8 (Homo sapiens, UniProt P10145); test: Dose Response confirmation of uHTS small molecule hits for cystic fibrosis induced NFkb Inhibitors in a PAF-induced IL8 counterscreen.; type: functional; settings: read-out: IC50_Mean
T6 sequence (P10145 whole entry): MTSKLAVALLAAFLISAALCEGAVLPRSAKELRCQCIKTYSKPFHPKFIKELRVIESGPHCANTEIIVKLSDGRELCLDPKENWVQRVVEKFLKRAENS

[18] = loss of viability in HepG2 cells – cell-based, CellTiter-Glo, cherry-picked, cytotoxicity control for Shn3 inhibitor project, dose response (AID 624134); type: functional
Interleukin-8 [19] = target: T6, Interleukin-8; test: Dose Response confirmation of uHTS small molecule hits for cystic fibrosis induced NFkb Inhibitors in a TNFa-induced IL8 counterscreen.; type: functional; settings: read-out: IC50_Mean

Compound: C[C@@H]1CN([C@@H](C)CO)C(=O)c2cccc(NS(C)(=O)=O)c2O[C@H]1CN(C)Cc1ccc(Oc2ccccc2)cc1
AC50 [9]: 19.5 µM (active) and 7.04 µM (active)

Compound: COc1cccc(C2CC(c3ccccc3)=NN2S(=O)(=O)c2ccc(C)cc2)c1OC (stereo not given)
EC50 [11]: 9.58 µM (active)

Compound: O=[N+]([O-])c1ccc2ncnc(N3CCN(Cc4ccc5c(c4)OCO5)CC3)c2c1
EC50 [12]: 3.78 µM (active) | IC50 (Fatty acid synthase [13]): 0.843 µM (active) | AC50 [14]: 26.5 µM (active) | EC50 (Mu-type opioid receptor): 92.5 µM (inactive) | AC50 (HEK293): 5.4 µM (active) | IC50 (Fatty acid synthase [15]): 1.39 µM (active) | AC50 [16]: 2.73 µM (active) | IC50 (Interleukin-8 [17]): 47.9 µM (inactive) | AC50 [18]: 35.6 µM (active) | IC50 (Interleukin-8 [19]): 40.4 µM (inactive)

Now from value to molecule, other results behind:

IC50 [1]: 35 µM (active) | IC50 [2]: 14 µM (active) | IC50 (Caspase-3 [3]): > 99 µM (inactive) | IC50 [4]: 30.7 µM (active) | IC50 [5]: > 99 µM (inactive) | IC50 (Caspase-3 [8]): 48 µM (active)
Compound: CCN(CC)c1ccc(/C=C/c2noc(-c3ccccc3O)n2)cc1
IC50 [6]: > 99 µM (inactive) | IC50 [7]: 43 µM (active)

IC50 [10]: 115 µM (inactive)
Compound: CCCCCOC(=O)C(C)c1c(C)nc(S)nc1O (stereo not given)

IC50 (Caspase-3 [3]): > 99 µM (inactive) | IC50 [4]: > 99 µM (inactive) | IC50 [5]: > 99 µM (inactive)
Compound: CCOc1cc(/C=C(/C#N)c2nc(-c3ccc(C)cc3)no2)cc(Cl)c1O
IC50 [6]: > 99 µM (inactive)
